Experimental data reported in patent publication US12624018B1, “Inhibitors of RIPK2 and medical uses thereof” (Odyssey Therapeutics, Inc., priority 2022, dated 2026).
Where two headings read alike, the source gives them in different places.

Assays:
RIPK2 enzyme = target: T1, RIPK2 enzyme (Homo sapiens, UniProt O43353); test: RIPK2 inhibition (ADP-Glo Kinase Assay); assay type: biochemical; settings: RIPK2 5 nM, ATP 150 μM, MBP substrate, read-out: RIPK2 IC50
T1 construct: purchased Carna 09-128
T1 sequence (O43353 1-299 limits assumed): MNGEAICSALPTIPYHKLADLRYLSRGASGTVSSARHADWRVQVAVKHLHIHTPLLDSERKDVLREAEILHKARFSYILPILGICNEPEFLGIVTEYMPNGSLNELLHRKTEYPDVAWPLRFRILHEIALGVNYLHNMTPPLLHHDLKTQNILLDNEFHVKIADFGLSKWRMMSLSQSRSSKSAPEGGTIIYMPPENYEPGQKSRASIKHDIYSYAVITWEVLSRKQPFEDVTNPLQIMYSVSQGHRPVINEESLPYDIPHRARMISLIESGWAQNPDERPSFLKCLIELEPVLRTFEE
In short: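 Human RIPK2 (5 nM) preincubated with compound 30 min at room temperature in 50 mM HEPES pH 7.5, 10 mM MgCl2, 2 mM DTT, 1 mM EGTA, 0.01% Brij-35, 0.05% BSA; native swine MBP as substrate. ADP formed quantified by ADP-Glo luminescence; percent inhibition relative to DMSO and no-enzyme controls.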

human NOD2 signaling = test: Inhibition of human NOD2 signaling in HEK-Blue-hNOD2 cells (L18-MDP stimulated, SEAP reporter); assay type: cell-based; settings: NOD2 ligand stimulation, SEAP reporter, read-out: hNOD2 IC50
Description: Materials: Human NOD32-expressing 1TEK293 cells, HEK-Blue™-hNOD2 cells, were developed by Invivogen (catalogue number: hkb-hnod2) using co-transfection of the human NOD2 gene and an optimized secreted embryonic alkaline phosphatase (SEAP) reporter gene into HTEK293 cells. The cell maintenance medium consisted of DMEM (Giboc, 21063-029), heat inactivated FBS, penicillin (100 U/mL), streptomycin (100 μg/mL), Normocin (100 μg/mL), Blasticidin (30 μg/mL), and Zeocin (100 μg/mL). HEK-Blue™-hNOD2 cells were transferred to assay medium consisting of DMEM (Giboc, 21063-029), heat inactivated FBS, penicillin (100 U/mL) and streptomycin (100 μg/mL) prior to stimulation. Stimulation with a NOD2 ligand, L18-MDP (Invivogen, catalogue number: tlrl-lmdp) activated NF-κB and AP-1 which induced the production of SEAP. Levels of SEAP were determined with HEK-Blue™ Detection (referred to as QUANTI-Blue solution), a cell culture medium that allows for real-time detection of SEAP. QUANTI-Blue solution was prepared by adding 1 mL of QB reagent and 1 mL of QB buffer to 98 mL of sterile H2O. Test compounds were prepared into a 10 mM DMSO solution and were serially diluted into 10 points using a 3-fold dilution in a 384 well plate using a TECAN EVO200.
Method: In a 384 well plate, 40 nL of test compound was dispensed using Echo550. HEK-Blue™-hNOD2 cells (Invivogen) were prepared into a cell suspension and 40 μL of the cell suspension (12500 cells per well) was dispensed into the 384 well plate. To activate NOD2 signaling, 40 nL of L18-MDP (final concentration of 0.5 ng/mL) was added and the plate was incubated at 37° C. in a CO2 incubator for 24 hours. After the 24-hour incubation, 5 μL of the induced HEK-Blue hNOD2 cell supernatant was transferred to a new 384-well plate, centrifuged, and 45 μL of QUANTI-Blue solution was added per well and incubated for 3 hours at 37° C. SEAP levels were measured using an Ensight at 620 nm. Percent inhibition of NOD2 signaling was determined using the following equation: (high control−test compound signal)/(High control−low control)×100. The reaction high control was determined using wells with DMSO, cells, L18-MDP, and QUANTI-Blue solution. The reaction low control was determined using wells with DMSO, cells, and QUANTI-Blue solution. 4-parametric curve fit was used to determine the test compound concentration that results in 50% reduction of L18-MDP-driven human NOD2 signaling.
Using the assay described above, inhibition of hNOD2 signaling was also evaluated for GSK 2983559 (Haile at al., J. Med. Chem. 2019, 62, 14, 6482-6494), a known RIPK2 kinase inhibitor: […]

[1] = Homo sapiens, HEK-Blue hNOD2, HEK-Blue-hNOD2 cells

Row | Compound | IC50 (RIPK2 enzyme) | IC50 (human NOD2 signaling; [1]) | IC50 (human NOD2 signaling; HEK-Blue-hNOD2 cells)
1 | Cc1cc(CC(=O)Nc2cnn(C(C)(C)C)c2)c(F)cc1Oc1ccnc2ccc(-c3ncccc3C(F)(F)F)cc12 [Compound 522, N-(1-(tert-butyl)-1H-pyrazol-4-yl)-2-(2-fluoro-5-methyl-4-((6-(3-(trifluoromethyl)pyridin-2-yl)quinolin-4-yl)oxy)phenyl)acetamide] | 8.6 nM | 25.8 nM | –
2 | [2H]C([2H])([2H])NC(=O)c1ccc2nccc(Oc3c(C)cc(CC(=O)Nc4cnn(C56CC(C5)C6)c4)cc3Cl)c2c1 [Compound 592, 4-(4-(2-((1-(bicyclo[1.1.1]pentan-1-yl)-1H-pyrazol-4-yl)amino)-2-oxoethyl)-2-chloro-6-methylphenoxy)-N-(methyl-d3)quinoline-6-carboxamide] | 2.8 nM | 80.2 nM | –
3 | CCc1nc(-c2ccc3nccc(Oc4cc(F)c(CC(=O)Nc5cnn(C(C)(C)C)c5)cc4C)c3c2)n[nH]1 [Compound 483, N-(1-(tert-butyl)-1H-pyrazol-4-yl)-2-(4-((6-(5-ethyl-1H-1,2,4-triazol-3-yl)quinolin-4-yl)oxy)-2-fluoro-5-methylphenyl)acetamide] | < 2.5 nM | 0.6 nM | –
4 | Cc1cc(CC(=O)Nc2cc(C(C)(C)C)[nH]n2)ccc1Oc1ccnc2cc(F)c(S(C)(=N)=O)cc12 (single isomer, unassigned) [Compound 621, N-(5-(tert-butyl)-1H-pyrazol-3-yl)-2-(4-((7-fluoro-6-(S-methylsulfonimidoyl)quinolin-4-yl)oxy)-3-methylphenyl) acetamide] | < 2.5 nM | – | 11.7 nM
5 | CCS(=N)(=O)c1ccc2nccc(Oc3ccc(CC(=O)Nc4cnn(C56CC(C5)C6)c4)cc3C)c2c1 (single isomer, unassigned) [Compound 593, N-(1-(bicyclo[1.1.1]pentan-1-yl)-1H-pyrazol-4-yl)-2-(4-((6-(ethylsulfonimidoyl)quinolin-4-yl)oxy)-3-methylphenyl) acetamide] | < 2.5 nM | 6.7 nM | –
6 | Cc1cc(CC(=O)Nc2cnn(C(C)(C)C)c2)ccc1Oc1ccnc2cc(F)c(S(=N)(=O)C3CC3)cc12 (single isomer, unassigned) [Compound 554, N-(1-(tert-butyl)-1H-pyrazol-4-yl)-2-(4-((6-(cyclopropane-sulfonimidoyl)-7-fluoroquinolin-4-yl)oxy)-3-methylphenyl) acetamide] | < 2.5 nM | – | 4.9 nM
7 | Cc1cc(CC(=O)Nc2cc(C(C)(C)C)[nH]n2)cc(C)c1Oc1ccnc2cc(F)c(C(N)=O)cc12 [Compound 618, 4-(4-(2-((5-(tert-butyl)-1H-pyrazol-3-yl)amino)-2-oxoethyl)-2,6-dimethylphenoxy)-7-fluoroquinoline-6-carboxamide] | < 2.5 nM | 0.3 nM | –
8 | COc1n[nH]cc1-c1ccc2nccc(Oc3cc(F)c(CC(=O)Nc4cnn(C(C)(C)C)c4)cc3C)c2c1 [Compound 480, N-(1-(tert-butyl)-1H-pyrazol-4-yl)-2-(2-fluoro-4-((6-(3-methoxy-1H-pyrazol-4-yl)quinolin-4-yl)oxy)-5-methylphenyl)acetamide] | < 2.5 nM | 0.8 nM | –

More lines, now with the values ahead:

Row | IC50 (RIPK2 enzyme) | IC50 (human NOD2 signaling; [1]) | IC50 (human NOD2 signaling; HEK-Blue-hNOD2 cells) | Compound
9 | < 2.5 nM | 1.3 nM | – | [2H]C([2H])([2H])C(n1cc(NC(=O)Cc2ccc(Oc3ccnc4ccc(S(C)(=O)=O)cc34)c(C)c2)cn1)(C([2H])([2H])[2H])C([2H])([2H])[2H] [Compound 597, 2-(3-methyl-4-((6-(methylsulfonyl)quinolin-4-yl)oxy)phenyl)-N-(1-(2-(methyl-d3)propan-2-yl-1,1,1,3,3,3-d6)-1H-pyrazol-4-yl)acetamide]
10 | < 2.5 nM | 5.6 nM | – | Cc1cc(CC(=O)Nc2cnn(C(C)(C)C)c2)ccc1Oc1ccnc2cc(F)c(S(=N)(=O)C3CC3)cc12 (single isomer, unassigned) [Compound 553, N-(1-(tert-butyl)-1H-pyrazol-4-yl)-2-(4-((6-(cyclopropane-sulfonimidoyl)-7-fluoroquinolin-4-yl)oxy)-3-methylphenyl) acetamide]
11 | < 2.5 nM | 3.6 nM | – | Cc1nc(CC(=O)Nc2cnn(C(C)(C)C)c2)ccc1Oc1ccnc2cc(F)c(C(N)=O)cc12 [Compound 612, 4-((6-(2-((1-(tert-butyl)-1H-pyrazol-4-yl)amino)-2-oxoethyl)-2-methylpyridin-3-yl)oxy)-7-fluoroquinoline-6-carboxamide]
12 | < 2.5 nM | 1.4 nM | – | [2H]C([2H])([2H])NC(=O)c1cc2c(Oc3c(C)cc(CC(=O)Nc4cnn(C(C)(C)C)c4)cc3F)ccnc2cc1F [Compound 600, 4-(4-(2-((1-(tert-butyl)-1H-pyrazol-4-yl)amino)-2-oxoethyl)-2-fluoro-6-methylphenoxy)-7-fluoro-N-(methyl-d3)quinoline-6-carboxamide]
13 | < 2.5 nM | 5.2 nM | – | CNC(=O)c1cc2c(Oc3ccc(CC(=O)Nc4cnn(C(C)(C)C)c4)cc3C(F)F)ccnc2cc1F [Compound 576, 4-(4-(2-((1-(tert-butyl)-1H-pyrazol-4-yl)amino)-2-oxoethyl)-2-(difluoromethyl)phenoxy)-7-fluoro-N-methylquinoline-6-carboxamide]
14 | < 2.5 nM | 4.6 nM | – | CNC(=O)c1cc2c(Oc3ccc(CC(=O)Nc4cnn(C(C)(C)C)c4)nc3C)ccnc2cc1F [Compound 613, 4-((6-(2-((1-(tert-butyl)-1H-pyrazol-4-yl)amino)-2-oxoethyl)-2-methylpyridin-3-yl)oxy)-7-fluoro-N-methylquinoline-6-carboxamide]
15 | < 2.5 nM | 46.7 nM | – | CNC(=O)c1ccc2nccc(Oc3c(C)cc(CC(=O)Nc4cnn(C56CC(C5)C6)c4)cc3Cl)c2c1 [Compound 591, 4-(4-(2-((1-(bicyclo[1.1.1]pentan-1-yl)-1H-pyrazol-4-yl)amino)-2-oxoethyl)-2-chloro-6-methylphenoxy)-N-methylquinoline-6-carboxamide]
16 | < 2.5 nM | 46.3 nM | – | Cc1cc(CC(=O)Nc2cnn(C(C)(C)C)c2)ccc1Oc1ccnc2ccc(C(O)C(N)=O)cc12 (single isomer, unassigned) [Compound 609, 2-(4-((6-(2-amino-1-hydroxy-2-oxoethyl)quinolin-4-yl)oxy)-3-methylphenyl)-N-(1-(tert-butyl)-1H-pyrazol-4-yl)acetamide]
17 | < 2.5 nM | 6.7 nM | – | Cc1cc(CC(=O)Nc2cc(C(C)(C)C)[nH]n2)ccc1Oc1ccnc2cc(F)c(S(C)(=N)=O)cc12 (single isomer, unassigned) [Compound 620, N-(5-(tert-butyl)-1H-pyrazol-3-yl)-2-(4-((7-fluoro-6-(S-methylsulfonimidoyl)quinolin-4-yl)oxy)-3-methylphenyl) acetamide]
18 | < 2.5 nM | 36 nM | – | CNC(=O)c1ccc2nccc(Oc3c(C)cc(CC(=O)Nc4cnn(C56CC(C5)C6)c4)cc3C)c2c1 [Compound 588, 4-(4-(2-((1-(bicyclo[1.1.1]pentan-1-yl)-1H-pyrazol-4-yl)amino)-2-oxoethyl)-2,6-dimethylphenoxy)-N-methylquinoline-6-carboxamide]
19 | < 2.5 nM | – | 0.2 nM | Cc1c(Oc2ccnc3ccc(S(=N)(=O)C(C)C)cc23)ccc(CC(=O)Nc2cnn(C(C)(C)C)c2)c1F (single isomer, unassigned) [Compound 538, N-(1-(tert-butyl)-1H-pyrazol-4-yl)-2-(2-fluoro-3-methyl-4-((6-(propan-2-ylsulfonimidoyl)quinolin-4-yl)oxy)phenyl) acetamide]
20 | < 2.5 nM | 1.8 nM | – | CSc1ccc2nccc(Oc3ccc(CC(=O)Nc4cnn(C(C)(C)C)c4)cc3C)c2c1 [Compound 486, N-(1-(tert-butyl)-1H-pyrazol-4-yl)-2-(3-methyl-4-((6-(methylthio)quinolin-4-yl)oxy)phenyl)acetamide]
